Data on 18 molecules can be found in patent US5929074A, “Pyridazinone derivatives with pharmaceutical activity” (Nissan Chemical Industries, Ltd., priority 1993, dated 1999).

Read-outs that look alike come from different tables or passages of the source.

Assay [1] addresses T1, histamine H1 receptor (Bos taurus, UniProt P30546).
T1 construct: suspension of bovine cerebellum; from tissue; host or cells: bovine cerebellum
Put plainly: Binding test employing 3H-pyrilamine (histamine H1 receptor-binding test). Conditions: 0.5 h. As for the experimental part: Tritiated pyrilamine was added to a suspension of bovine cerebellum and a 50 mM phosphate buffer solution (pH 7.5), and the mixture was left to stand still at 25° C. for 30 minutes. Then, the mixture was rapidly filtered under suction through a glass fiber filter paper, and the radio activities on the filter paper were measured.

Assay [2] concerns guinea-pig trachea. The experiment in a line: Bronchodilating effect in vitro, Method 1-1: relaxation of LTD4-contracted guinea-pig trachea strips. The format is cell-based. The following applies: Cavia porcellus, read-out: EC50 (concentration to achieve 50% relaxation relative to relaxation by 1 mM aminophylline). As for the experimental part: (§1) A test sample drug was dissolved in 100% dimethylsulfoxide (DMSO, Wako Junyaku) and diluted for use. Leukotriene D4 (LTD4, Ultrafine) and isoproterenol (Isoproterenol, Sigma) were diluted with distilled water. Indomethacin (Indo, Sigma) was dissolved in 100% ethanol (EtOH, Komune Kagaku). Aminophylline (AP, Sigma), histamine dihydrochloride (His, Wako Junyaku) was dissolved in distilled water. The final concentrations of DMSO and EtOH in a bath were made not higher than 0.25% v/v and not higher than 0.1% v/v, respectively. Method 1:1:
(§2) A guinea-pig of 300-450 g was exsanguinated, and the trachea was taken out. After removing fat and connective tissues, it was cut and divided into 2 to 3 spiral strips, each having a width of about 2 mm and containing 4 smooth muscle tissues. Each specimen thus prepared was suspended in an organ bath of 8 ml containing a modified Tyrode solution aerated with 95% O2 +5% CO2 at 37° C., and a load of 1 g was applied thereto. The relaxation of the muscle was recorded by a pen recorder (Yokogawa Hokushin Electric, type 3066) by means of an isotonic transducer (Nihon Kohden, TD-112S).
The composition of the modified Tyrode solution was as follows (mM):
The specimen was allowed to stand for 50-60 minutes, and was contracted with histamine dihydrochloride (100 μM). After the reaction became constant, it was washed and allowed to stand for 20-30 minutes. Indomethacin (5 μM) was added thereto, and after incubation for 30 minutes, the specimen was contracted by adding LTD4 (30 nM). After the reaction-became stable, a test sample drug was accumulatively administered. Finally, AP (1 mM) was added to achieve the maximum relaxation reaction. The result was expressed by relaxation percent relative to the relaxation by AP which was rated 100%, and a concentration to achieve 50% relaxation (EC50, μM) was measured. As a control drug, AP was used.

Assay [3] deals with platelet. The experiment in a line: Anti-platelet aggregation effect in rabbits (ADP-induced). The following applies: read-out: IC50 (concentration at which aggregation of control sample was 50% inhibited). The format is cell-based, rabbit. As for the experimental part: Anti-platelet aggregation effect in rabbits
Blood was collected from the abdominal artery of Japanese white male rabbits (weight: 1.8 to 2.5 kg) into a syringe containing 1/10 volume 3.8% sodium citrate. The blood thus obtained was subjected to a centrifugation at 200×g for 7 minutes at room temperature to obtain platelet rich plasma (PRP). Furthermore, the residue was subjected to a centrifugation at 2000×g for 10 minutes to obtain platelet poor plasma (PPP). The measurement was effected by diluting PRP with PPP to 300,000/mm^3. PRP and PPP were placed in a cuvette, and the measurement range of transmittance was adjusted to 0% in the case of PRP and to 100% in the case of PPP. Thereafter, a test sample drug dissolved in 100% dimethylsulfoxide (DMSO) was added to PRP (the final concentration of DMSO: 0.25%). After incubation was effected at 37° C. at 900 rpm for 2 minutes, an aggregating agent was added to record an aggregation curve. The anti-platelet aggregation effect of the test sample drug was expressed by a concentration (IC50 : μM) at which the aggregation of control sample was 50% inhibited. The aggregating agent ADP was used at the minimum concentration (5 to 10 μM) which caused the maximum aggregation. The measurement of platelet aggregation was carried out by using NBS HEMA TRACER 601.

Assay [4] relates to anaphylactic bronchoconstriction mediated by endogeneously liberated SRS-A. The experiment in a line: Effect on anaphylactic bronchoconstriction mediated by endogeneously liberated SRS-A in passively sensitized guinea-pig. The format is in vivo. The following applies: for inhibition in vivo at 30 mg/kg: Cavia porcellus, po, 2 h. As for the experimental part: Effect on anaphylactic bronchoconstriction mediated by endogeneously liberated SRS-A in passively sensitized guinea-pig
Male guinea-pigs (350-450 g) were passively sensitized with intravenous (i.v.) injection of 0.125 ml rabbit anti-EA (egg albumin) serum (Capple Laboratories) 1 to 2 days preceding the experiment. Antigen-induced anaphylactic bronchoconstrictions mediated by endogeneously liberated SRS-A were measured by modified method of Konzett and Rossler (Arch. Exp. Path. Pharmak., 195, 71, 1940). Sensitized quinea-pigs were anaesthetized with intraperitoneal injection of urethane (1.5 g/kg). The right jugular vein was cannulated for the administration of the all agents and trachea was cannulated to record total pulmonary resistance. Guinea-pigs were artificially ventilated by a small animal respirator (Shinano, Model SN-480-7) set at a stroke volume of 4.5 ml and a rate of 50 breaths per min. The change in pulmonary resistance was measured with a pressure transducer (Nihon Kohden, Model TP-602T) connected to a T-tube on the tracheal cannula. The percentage of the maximum bronchoconstriction obtained by clamping off the trachea. Following surgical preparation, the animals were pretreated with indomethacin (2 mg/kg, 10 min), pyrilamine (2 mg/kg, 6 min) and propranolol (0.1 mg/kg, 5 min) prior to the EA challenge (0.2 mg/kg). All test compounds were administered orally 2 hours before the EA challenge. Inhibition (%) of broncho-constriction was determined as follows: Inhibition (%)=(1.0-% maximum bronchoconstriction in test/% maximum bronchoconstriction in control)×100. The maximum bronchoconstriction was 62±6% (Mean±S.E.M; n=6) and the number of test animals was 5-6.

Assay [5] concerns guinea-pig trachea. The experiment in a line: Bronchodilating effect in vitro, Method 1-2: relaxation of guinea-pig trachea strips (no LTD4 contraction). The format is cell-based. The following applies: Cavia porcellus, read-out: EC50 (concentration to achieve 50% relaxation relative to relaxation by 1 mM aminophylline). As for the experimental part:
as §1, §2
The same measuring method as method 1-1 was employed. The specimen was allowed to stand for from 60 to 90 minutes and then relaxed by an addition of 1 μM of isopreterenol. The specimen was washed, and this operation was repeated at an interval of from 30 to 40 minutes until a constant relaxation reaction was reached. Then, a test sample drug was accumulately applied to relax the specimen. Finally, 1 mM of AP was added to achieve the maximum relaxation reaction. The result was expressed by relaxation percent relative to the relaxation by AP which was rated 100%, and a concentration to achieve 50% relaxation (EC50, μM) was obtained. The final concentration of DMSO in the bath was adjusted to be 0.2 v/v%. As a control drug, AP was used.

Setting [6] is: Method 1-1, LTD4 (30 nM) contracted trachea, indomethacin 5 μM.
Where [7] appears, read: Oryctolagus cuniculus, Platelet, rabbit PRP, ADP 5 to 10 μM, 37° C.
The mark [8] stands for this setting: 30 mg/kg, orally 2 hours before EA challenge.
[9] abbreviates: 10 μM, bovine cerebellum, pH 7.5, 25° C., 30 minutes, read-out: Inhibition ratio against H1-receptor.
[10] abbreviates: Method 1-2, trachea conditioned with 1 μM isoproterenol, no LTD4, DMSO 0.2 v/v%.
Where [11] appears, read: 30 mg/kg, orally 2 hours before EA challenge, read-out: Inhibition of broncho-constriction.

T1 sequence (P30546 whole entry): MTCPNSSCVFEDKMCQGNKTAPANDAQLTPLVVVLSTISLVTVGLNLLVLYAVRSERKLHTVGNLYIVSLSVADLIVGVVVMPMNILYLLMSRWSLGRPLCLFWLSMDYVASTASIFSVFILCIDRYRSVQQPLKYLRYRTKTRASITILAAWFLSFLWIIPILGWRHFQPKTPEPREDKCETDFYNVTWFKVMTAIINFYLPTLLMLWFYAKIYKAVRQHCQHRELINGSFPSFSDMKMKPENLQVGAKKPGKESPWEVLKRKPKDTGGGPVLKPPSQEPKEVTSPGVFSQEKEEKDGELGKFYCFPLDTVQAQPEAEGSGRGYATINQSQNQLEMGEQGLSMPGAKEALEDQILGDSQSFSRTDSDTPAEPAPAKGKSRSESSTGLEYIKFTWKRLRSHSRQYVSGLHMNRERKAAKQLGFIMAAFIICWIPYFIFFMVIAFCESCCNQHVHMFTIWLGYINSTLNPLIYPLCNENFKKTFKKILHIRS

Regarding `COc1ccc(CNc2cn[nH]c(=O)c2Br)cc1OCCN1CCN(Cc2ccc(Cl)cc2)CC1.Cl` [Compound 7, 4-Bromo-5-[3-{2-(4-(4-chlorobenzyl)-piperazin-1-yl)-ethoxy}-4-methoxybenzylamino]-3(2H)-pyridazinone hydrochloride], the inhibition at 10 µM in assay [1] (pH 7.5, read-out: Inhibition ratio against H1-receptor, 10 μM, bovine cerebellum, pH 7.5, 25° C., 30 minutes) was 56.1%. Moreover, the EC50 in assay [2] (setting [6]) is 0.49 µM. Further, the IC50 in assay [3] (setting [7]) turned out to be 5.4 µM. Moreover, the Inhibition of broncho-constriction in assay [4] (setting [8]) was 59%.
Take `COc1ccc(CNc2cn[nH]c(=O)c2Br)cc1OCCN1CCN(Cc2ccc(Cl)cc2)CC1.O=C(O)/C=C/C(=O)O` [Compound 8, 4-Bromo-5-[3-{2-(4-(4-chlorobenzyl)-piperazin-1-yl)-ethoxy}-4-methoxybenzylamino]-3(2H)-pyridazinone fumarate]: in assay [1] (setting [9]), the inhibition at 10 µM turned out to be 56.5%. The IC50 in assay [3] (rabbit PRP, ADP 5 to 10 μM, 37° C., fumarate) turned out to be 5.5 µM. Further, in assay [4] (setting [8]), the Inhibition of broncho-constriction was found to be 32%.
In the case of `CCn1ncc(NCc2ccc(OC)c(OCCN3CCN(Cc4ccc(F)cc4)CC3)c2)c(Cl)c1=O` [Compound 17], the inhibition at 10 µM in assay [1] (setting [9]) came to 55.8%. In addition, in assay [2] (setting [6]), the EC50 amounted to 3.3 µM.
For the molecule `COc1ccc(CNc2cn[nH]c(=O)c2Br)cc1OCCCN1CCN(Cc2ccccc2)CC1` [Compound 22], the inhibition at 10 µM in assay [1] (setting [9]) is 86.6%. Moreover, the EC50 in assay [2] (setting [6]) was found to be 0.39 µM. Besides, the IC50 in assay [3] (setting [7]) was 2.1 µM.
Regarding `COc1ccc(CNc2cn[nH]c(=O)c2Cl)cc1OCCCN1CCN(Cc2ccccc2)CC1` [Compound 23], the inhibition at 10 µM in assay [1] (setting [9]) stood at 92.2%. Besides, the EC50 in assay [2] (setting [6]) was determined as 1.3 µM. For the same molecule, the IC50 in assay [3] (setting [7]) is 4.6 µM.
Regarding `COc1ccc(CNc2c([N+](=O)[O-])n[nH]c(=O)c2Cl)cc1OCCCN1CCN(Cc2ccccc2)CC1` [Compound 24], the inhibition at 10 µM in assay [1] (setting [9]) amounted to 89.2%. The values for the EC50 in assay [2] (setting [6]) and in assay [5] (setting [10]) were 2 µM and 0.98 µM, respectively.
Take `COc1ccc(CNc2c(Cl)n[nH]c(=O)c2Cl)cc1OCCCN1CCN(Cc2ccccc2)CC1` [Compound 25]: in assay [1] (setting [9]), the inhibition at 10 µM was determined as 94.4%. Also, the EC50 in assay [2] (setting [6]) stood at 0.47 µM. Besides, in assay [3] (setting [7]), the IC50 came to 5.1 µM. In addition, in assay [4] (setting [11]), the inhibition in vivo at 30 mg/kg was 59%.
As for `COc1ccc(CNc2cn[nH]c(=O)c2Cl)cc1OCCCN1CCN(Cc2ccc(F)cc2)CC1` [Compound 26], the inhibition at 10 µM in assay [1] (setting [9]) was found to be 92.6%. In addition, the EC50 stood at 0.75 µM in assay [2] (setting [6]) and 0.91 µM in assay [5] (setting [10]). The inhibition in vivo at 30 mg/kg in assay [4] (setting [11]) was 36%.
`COc1ccc(CNc2c([N+](=O)[O-])n[nH]c(=O)c2Cl)cc1OCCCN1CCN(Cc2ccc(Cl)cc2)CC1` [Compound 29]: the inhibition at 10 µM in assay [1] (setting [9]) came out at 93.6%.
As for `COc1ccc(CNc2c(Cl)n[nH]c(=O)c2Cl)cc1OCCCN1CCN(Cc2ccc(Cl)cc2)CC1` [Compound 30], the inhibition at 10 µM in assay [1] (setting [9]) was 90.5%. Moreover, the EC50 in assay [2] (setting [6]) amounted to 2.6 µM.
For the molecule `COc1ccc(CNc2cn[nH]c(=O)c2Cl)cc1OCC(=O)N1CCN(Cc2ccccc2)CC1` [Compound 36], the EC50 in assay [2] was 0.32 µM; in assay [5], 0.24 µM. For the same molecule, the IC50 in assay [3] (Oryctolagus cuniculus, Platelet) came out at 1.6 µM. Further, in assay [4] (read-out: Inhibition of broncho-constriction, 30 mg/kg, orally 2 hours before EA challenge), the inhibition in vivo at 30 mg/kg stood at 41%.
For the molecule `COc1ccc(CNc2cn[nH]c(=O)c2Cl)cc1OCC(=O)N1CCN(Cc2ccc(F)cc2)CC1` [Compound 39], the EC50 came to 0.16 µM in assay [2] (setting [6]) and 0.17 µM in assay [5] (setting [10]). The IC50 in assay [3] (setting [7]) stood at 1.4 µM. Further, the inhibition in vivo at 30 mg/kg in assay [4] (setting [11]) turned out to be 63%.
As to `COc1ccc(CNc2cn[nH]c(=O)c2Br)cc1OCC(=O)N1CCN(Cc2ccc(F)cc2)CC1` [Compound 43], the EC50 in assay [2] (setting [6]) is 0.4 µM; in assay [5] (setting [10]), 0.28 µM. Also, the IC50 in assay [3] (setting [7]) came to 2.2 µM. Also, the inhibition in vivo at 30 mg/kg in assay [4] (setting [11]) was 62%.
As for `COc1ccc(CNc2cn[nH]c(=O)c2Cl)cc1OCCCC(=O)N1CCN(Cc2ccccc2)CC1` [Compound 47], the EC50 in assay [2] (setting [6]) is 0.77 µM; in assay [5] (setting [10]), 0.54 µM. Besides, the IC50 in assay [3] (setting [7]) is 5.7 µM. Besides, the inhibition in vivo at 30 mg/kg in assay [4] (setting [11]) came to 37%.
On the same counts, the results for `CCOc1n[nH]c(=O)c(Cl)c1NCc1ccc(OC)c(OCC(=O)N2CCN(Cc3ccc(F)cc3)CC2)c1` [Compound 64] are 0.32 µM, 0.061 µM, 0.39 µM and 26%.
As for `CCOc1n[nH]c(=O)c(Cl)c1NCc1ccc(OC)c(OCC(=O)N2CCN(Cc3ccc4ccccc4n3)CC2)c1` [Compound 67], the values for the EC50 in assay [2] (setting [6]) and in assay [5] (setting [10]) were 0.17 µM and 0.041 µM, respectively. In addition, the IC50 in assay [3] (setting [7]) is 0.4 µM. Also, in assay [4] (setting [11]), the inhibition in vivo at 30 mg/kg amounted to 29%.
As to `COc1ccc(CNc2c(OC(C)C)n[nH]c(=O)c2Cl)cc1OCC(=O)N1CCN(Cc2ccc(N)cc2)CC1` [Compound 78, 4-Chloro-5-[3-(4-(4-aminobenzyl)-piperazin-1-yl)-carbonylmethoxy-4-methoxybenzylamino]-6-isopropoxy-3(2H)-pyridazinone], the inhibition in vivo at 30 mg/kg in assay [4] (setting [11]) worked out at 54%. The EC50 in assay [5] (setting [10]) was 0.014 µM.
In the same order, the values of `COc1ccc(CNc2c(OC(C)C)n[nH]c(=O)c2Cl)cc1OCC(=O)N1CCN(Cc2ccc(NC(C)=O)cc2)CC1` [Compound 80] are 30% and 0.039 µM.
